Experimental data from ChEMBL document CHEMBL1131991, “Discovery of CP-199,330 and CP-199,331: two potent and orally efficacious cysteinyl LT1 receptor antagonists devoid of liver toxicity” (Bioorg Med Chem Lett, 1999).

Experiments:
Cavia porcellus [1] = assay: Compound was evaluated in vivo for antigen induced airway obstruction in guinea pig (OA) at 1.0 hour after oral administration; format: functional
[2] = Compound was evaluated for terminal half life in monkey; format: ADME; settings: cercopithecidae, in vivo
Rattus norvegicus = species: Rattus norvegicus; assay: Compound was evaluated for Hepatic clearance in rat; format: ADME, organism-based, Liver; settings: in vivo
Cavia porcellus [3] = assay: Compound was evaluated in vivo for cysLT1 receptor induced airway obstruction in guinea pig (OA) at 1.0 hour after oral administration; format: functional
[4] = Compound was evaluated for terminal half life in rat; format: ADME, organism-based; settings: in vivo
U-937 = assay: In vitro blocking of extracellular calcium mobilization in human U937 cells; format: functional, cell-based
[5] = Oral bioavailability in monkey; format: ADME, organism-based; settings: cercopithecidae, in vivo
[6] = Oral bioavailability in rat; format: ADME, organism-based; settings: in vivo
[7] = Compound was evaluated for Hepatic clearance in monkey; format: ADME, organism-based, Liver; settings: cercopithecidae, in vivo
[8] = molecular target: T1, Cysteinyl leukotriene receptor 1 (Cavia porcellus, UniProt Q2NNR5); assay: In vitro binding of Cysteinyl leukotriene receptor 1 to guinea pig lung membranes; format: tissue-based, Membrane
T1 sequence (Q2NNR5 whole entry): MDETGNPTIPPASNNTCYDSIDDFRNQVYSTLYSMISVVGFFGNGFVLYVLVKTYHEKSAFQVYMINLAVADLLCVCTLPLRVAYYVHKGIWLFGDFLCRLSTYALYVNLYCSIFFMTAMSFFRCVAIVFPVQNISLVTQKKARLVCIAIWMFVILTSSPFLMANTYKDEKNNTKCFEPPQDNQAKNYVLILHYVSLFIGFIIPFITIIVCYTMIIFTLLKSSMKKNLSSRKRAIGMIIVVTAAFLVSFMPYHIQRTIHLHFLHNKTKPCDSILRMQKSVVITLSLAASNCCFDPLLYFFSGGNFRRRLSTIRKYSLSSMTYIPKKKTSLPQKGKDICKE

Cavia porcellus [9] = assay: Compound was evaluated in vivo for cysLT1 receptor induced airway obstruction in guinea pig (OA) at 1.0 hour after oral administration.; format: functional
Cavia porcellus [10] = assay: Compound was evaluated in vivo for cysLT1 receptor induced airway obstruction in guinea pig (OA) at 2.0 hour after oral administration.; format: functional
Cavia porcellus [11] = assay: Compound was evaluated in vivo for antigen induced airway obstruction in guinea pig (OA) at 2.0 hour after oral administration.; format: functional

Row | half-life [2] [h] | Clp (Rattus norvegicus) [mL/min/kg] | half-life [4] [h] | IC50 (U-937) [nM] | bioavailability [5] [%] | bioavailability [6] [%] | Clp [7] [mL/min/kg] | Ki [8] [nM] | SMILES | ED50 (Cavia porcellus [1]) [mg/kg] | ED50 (Cavia porcellus [3]) [mg/kg] | ED50 (Cavia porcellus [9]) [mg/kg] | ED50 (Cavia porcellus [10]) [mg/kg] | ED50 (Cavia porcellus [11]) [mg/kg]
1 |  |  |  |  |  |  |  |  | O=C(Nc1cccc2c(=O)cc(-c3nnn[nH]3)oc12)c1ccc(OCCCCc2ccccc2)cc1 | 1.5 |  |  |  | 
2 | 2.1 | 8.9 | 0.8 | 0.7 | 100 | 53 | 6.5 | 0.6 | COc1ccc(NS(=O)(=O)C(F)(F)F)cc1C[C@@H]1COc2ccc(OCc3ccc4ccc(Cl)cc4n3)cc2[C@@H]1O | 0.46 | 0.12 |  |  | 
3 | 9.4 | 8.3 | 8.8 | 0.3 | 72 | 46 | 4.2 | 0.4 | COc1ccc(NS(=O)(=O)C(F)(F)F)cc1C[C@@H]1COc2ccc(OCc3nc4cc(F)c(F)cc4s3)cc2[C@@H]1O | 0.52 |  | 0.08 |  | 
4 |  |  |  |  |  |  |  |  | COc1cc(C(=O)NS(=O)(=O)c2ccccc2C)ccc1Cc1cn(C)c2ccc(NC(=O)OC3CCCC3)cc12 [ZAFIRLUKAST] |  |  |  | 0.52 | 0.9
